Where two headings read alike, the source gives them in different places.
Key:
Format in all cases: biochemical
papain = biological target: T1, papain (Carica papaya, UniProt P00784); assay: Thiol protease inhibitory activity, papain (P-3125, Sigma)
T1 sequence (P00784 134-345): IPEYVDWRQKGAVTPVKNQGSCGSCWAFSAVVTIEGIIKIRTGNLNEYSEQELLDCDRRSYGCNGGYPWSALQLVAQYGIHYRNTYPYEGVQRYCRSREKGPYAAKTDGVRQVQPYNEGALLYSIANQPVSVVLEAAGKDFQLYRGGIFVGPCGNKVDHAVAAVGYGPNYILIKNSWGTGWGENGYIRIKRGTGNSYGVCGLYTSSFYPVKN
Description: (§1) Inhibitory activity against papain (P-3125, Sigma) and cathepsin B (C-6286, Sigma) was assayed according to the method described in a literature [Biochemical Journal, 201, 189 (1982)]. Cathepsin L was purified from rat kidney according to the method in a literature [Journal of Biochemistry, 100, 35 (1986)], and the inhibitory activity against it was assayed in the same manner as described in the above literature for cathepsin B. Furthermore, m-calpain was purified from rat brain according to a known method [Journal of Biological Chemistry, 254, p. 3210 (1984)] and the inhibitory activity against it was assayed by a method described in a literature [Journal of Biological Chemistry, 259, 12489 (1984)]. It is evident from Tables 3 and 4 that the compounds of the present invention have a potent inhibitory activity against thiol proteases such as papain, cathepsin B, cathepsin L or m-calpain.

cathepsin B = biological target: T2, cathepsin B (Bos taurus, UniProt P07688); assay: Thiol protease inhibitory activity, cathepsin B (C-6286, Sigma); conditions: Table 3
T2 construct: purchased Sigma C-6286
Description: as §1

cathepsin L = biological target: T3, cathepsin L (Rattus norvegicus, UniProt P07154); assay: Thiol protease inhibitory activity, cathepsin L purified from rat kidney; conditions: Table 3
T3 construct: Cathepsin L was purified from rat kidney; from tissue; host or cells: rat kidney
T3 sequence (P07154 114-334): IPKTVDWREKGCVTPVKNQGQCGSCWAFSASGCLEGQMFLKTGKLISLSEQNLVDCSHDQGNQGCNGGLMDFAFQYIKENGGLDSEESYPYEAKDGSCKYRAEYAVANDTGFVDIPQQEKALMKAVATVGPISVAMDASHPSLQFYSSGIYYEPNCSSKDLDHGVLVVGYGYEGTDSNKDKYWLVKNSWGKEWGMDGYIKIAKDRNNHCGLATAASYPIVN
Description: as §1

m-calpain = biological target: T4, m-calpain (Rattus norvegicus, UniProt Q07009); assay: Thiol protease inhibitory activity, m-calpain purified from rat brain; conditions: Table 3
T4 construct: m-calpain was purified from rat brain; from tissue; host or cells: rat brain
T4 sequence (Q07009 20-700 limits assumed): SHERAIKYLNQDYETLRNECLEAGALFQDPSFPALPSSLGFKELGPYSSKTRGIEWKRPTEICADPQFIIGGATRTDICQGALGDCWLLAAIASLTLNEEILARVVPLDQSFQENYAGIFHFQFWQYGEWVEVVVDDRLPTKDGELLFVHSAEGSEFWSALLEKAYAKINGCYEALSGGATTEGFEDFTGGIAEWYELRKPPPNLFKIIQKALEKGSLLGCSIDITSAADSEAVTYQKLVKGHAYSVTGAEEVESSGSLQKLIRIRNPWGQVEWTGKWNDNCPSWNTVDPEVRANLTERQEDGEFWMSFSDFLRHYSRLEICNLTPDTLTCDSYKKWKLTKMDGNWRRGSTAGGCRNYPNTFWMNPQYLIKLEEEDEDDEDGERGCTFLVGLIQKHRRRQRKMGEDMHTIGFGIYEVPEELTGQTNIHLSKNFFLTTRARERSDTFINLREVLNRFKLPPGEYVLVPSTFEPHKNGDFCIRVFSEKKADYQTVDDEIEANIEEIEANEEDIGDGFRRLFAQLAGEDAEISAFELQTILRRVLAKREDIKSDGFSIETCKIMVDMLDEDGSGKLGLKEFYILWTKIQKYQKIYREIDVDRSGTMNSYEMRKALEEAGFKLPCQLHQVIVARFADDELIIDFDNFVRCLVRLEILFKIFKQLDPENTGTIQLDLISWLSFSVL
T4 sequence (Q64537 1-270 partner): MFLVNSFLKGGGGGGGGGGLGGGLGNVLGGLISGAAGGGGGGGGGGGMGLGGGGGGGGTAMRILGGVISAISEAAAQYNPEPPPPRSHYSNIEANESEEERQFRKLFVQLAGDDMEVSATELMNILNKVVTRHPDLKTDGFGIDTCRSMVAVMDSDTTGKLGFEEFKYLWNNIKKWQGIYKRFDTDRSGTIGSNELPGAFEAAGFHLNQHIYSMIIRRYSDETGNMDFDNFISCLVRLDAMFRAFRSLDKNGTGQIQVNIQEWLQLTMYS
Summary of the method: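 Papain and bovine cathepsin B assayed by a published method; cathepsin L purified from rat kidney and assayed in the same manner as cathepsin B. m-Calpain purified from rat brain and assayed by a separate published procedure.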

| SMILES | IC50 (papain; Table 3, read-out: IC50 papain) [µM] | IC50 (cathepsin B) [µM] | IC50 (cathepsin L) [µM] | IC50 (m-calpain) [µM] | IC50 (papain) [µM] |
| --- | --- | --- | --- | --- | --- |
| CCCC[C@H](NC(=O)[C@H](CC(C)C)NC(=O)c1ccccc1)C(=O)CSCc1ccco1 [54 (No. 116), (s)-3-((s)-2-benzoylamino-4-methylvalerylamino)-1-furfurylthio-2-heptanone] | 0.38 | 0.88 | 0.25 | 14 |  |
| CCCC[C@H](NC(=O)[C@H](CC(C)C)NC(=O)c1ccc2ccccc2c1)C(=O)CSCc1ccco1 [82 (No. 162), (s)-1-furfurylthio-3-[(s)-4-methyl-2-(2-naphtoylamino)valerylamino]-2-heptanone] | 34 | 2.7 | 0.32 | 20 |  |
| CCCC[C@H](NC(=O)[C@H](CC(C)C)NC(=O)c1cccc2ccccc12)C(=O)CSCc1ccco1 [83 (No. 161), (s)-1-furfurylthio-3-[(s)-4-methyl-2-(1-naphtoylamino)valerylamino]-2-heptanone] | 47 | 5 | 0.4 | 12 |  |
| CCCC[C@H](NC(=O)[C@H](CC(C)C)NC(=O)c1cc2ccccc2o1)C(=O)CSCc1ccco1 [91 (No. 180), (s)-3-[(s)-2-(2-benzofuranylcarbonylamino)-4-methylvalerylamino]-1-furfurylthio-2-heptanone] | 0.16 | 0.05 | 0.069 | 14 |  |
| CC(C)C[C@H](NC(=O)OCc1ccccc1)C(=O)N[C@@H](CC1CCCCC1)C(=O)CSCc1ccco1 [109 (No. 238), (s)-3-((s)-2-benzyloxycarbonylamino-4-methylvalerylamino)-4-cyclohexyl-1-furfurylthio-2-butanone] | 4.2 | 1.1 | 1.2 | 13 |  |
| CC(C)C[C@H](NC(=O)COc1ccccc1)C(=O)N[C@@H](CC1CCCCC1)C(=O)CSCc1ccco1 [110 (No. 240), (s)-4-cyclohexyl-1-furfurylthio-3-((s)-4-methyl-2-phenoxyacetylaminovalerylamino)-2-butanone] |  | 3.3 | 0.98 | 6 | 21 |
| CSCC(=O)[C@H](Cc1ccccc1)NC(=O)[C@H](CC(C)C)NC(=O)Cc1cccc2ccccc12 [120 (No. 256), (s)-3-[(s)-4-methyl-2-(1-naphtylacetylamino)valerylamino]-1-methylthio-4-phenyl-2-butanone] | 56 | 3.9 | 0.49 | 26 |  |
| CCC(C)[C@H](NC(=O)OCC1CCCCC1)C(=O)N[C@@H](Cc1ccccc1)C(=O)CSCc1ccco1 (some centres unmarked) [135 (No. 288), (s)-3-((s)-2-cyclohexylmethoxycarbonylamino-3-methylvalerylamino)-1-furfurylthio-4-phenyl-2-butanone] | 59 | 0.31 | 0.054 | 3.2 |  |
| CC(C)C[C@H](NC(=O)OCc1ccccn1)C(=O)N[C@@H](Cc1ccccc1)C(=O)CSCc1ccco1 [150 (No. 313), (s)-1-furfurylthio-3-[(s)-4-methyl-2-(2-pyridylmethoxycarbonylamino)valerylamino]-4-phenyl-2-butanone] | 91 | 1.1 | 0.27 | 5.4 |  |
| CC(C)C[C@H](NC(=O)Cc1cccc2ccccc12)C(=O)N[C@@H](Cc1ccccc1)C(=O)CSCc1ccco1 [159 (No. 333), (s)-1-furfurylthio-3-[(s)-4-methyl-2-(l-naphtylacetylamino)valerylamino]-4-phenyl-2-butanone] | 0.38 | 0.75 | 1.1 | 1.9 |  |
| CC(C)C[C@H](NC(=O)Cc1ccc2ccccc2c1)C(=O)N[C@@H](Cc1ccccc1)C(=O)CSCc1ccco1 [160 (No. 334), (s)-1-furfurylthio-3-[(s)-4-methyl-2-(2-naphtylacetylamino)valerylamino]-4-phenyl-2-butanone] | 35 | 3.3 | 6.6 | 28 |  |
| CC(C)C[C@H](NC(=O)COc1ccccc1)C(=O)N[C@@H](Cc1ccccc1)C(=O)CSCc1ccco1 [164 (No. 348), (s)-1-furfurylthio-3-((s)-4-methyl-2-phenoxyacetylaminovalerylamino)-4-phenyl-2-butanone] |  | 64 | 3.2 | 1.7 | 35 |
| CC(C)C[C@H](NC(=O)C(C)Oc1ccccc1)C(=O)N[C@@H](Cc1ccccc1)C(=O)CSCc1ccco1 (some centres unmarked) [165 (No. 349), (s)-1-furfurylthio-3-[(s)-4-methyl-2-(2-phenoxypropionylamino)valerylamino]-4-phenyl-2-butanone] | 9.2 | 7 | 1.9 | 13 |  |
| CC(C)C[C@H](NC(=O)COc1ccccc1Cl)C(=O)N[C@@H](Cc1ccccc1)C(=O)CSCc1ccco1 [167 (No. 354), (s)-3-[(s)-2-(2-chlorophenoxyacetylamino)-4-methylvalerylamino]-1-furfurylthio-4-phenyl-2-butanone] | > 100 | 30 | 1.4 | 20 |  |
| CC(C)C[C@H](NC(=O)COc1cccc2ccccc12)C(=O)N[C@@H](Cc1ccccc1)C(=O)CSCc1ccco1 [170 (No. 364), (s)-1-furfurylthio-3-[(s)-4-methyl-2-(1-naphtoxyacetylamino)valerylamino]-4-phenyl-2-butanone] | 9.2 | 6.5 | 8.6 | 19 |  |
| CC(C)C[C@H](NC(=O)c1cc2ccccc2o1)C(=O)N[C@@H](Cc1ccccc1)C(=O)CSCc1ccco1 [174 (No. 382), (s)-3-[(s)-2-(2-benzofuranylcarbonylamino)-4-methylvalerylamino]-1-furfurylthio-4-phenyl-2-butanone] | 12 | 23 | 1.6 | 16 |  |
| CC(C)C[C@H](NC(=O)OCc1ccccc1)C(=O)N[C@@H](Cc1ccccc1)C(=O)CN(C)Cc1ccco1 [191 (No. 479), (s)-3-((s)-2-benzyloxycarbonylamino-4-methylvalerylamino)-1-(N-methylfurfurylamino)-4-phenyl-2-butanone] | > 100 | 3.5 | 9.3 | 24 |  |
| CC(C)C[C@H](NC(=O)COc1ccccc1)C(=O)N[C@@H](Cc1ccc(Cl)cc1)C(=O)CSCc1ccco1 [197 (No. 511), (s)-4-(4-chlorophenyl)-1-furfurylthio-3-((s)-4-methyl-2-phenoxyacetylaminovalerylamino)-2-butanone] |  | 6 | 1.7 | 7.8 | 13 |
| CSCC(=O)[C@H](CCc1ccccc1)NC(=O)[C@H](CC(C)C)NC(=O)OCc1ccccc1 [202 (No. 534), (s)-3-((s)-2-benzyloxycarbonylamino-4-methylvalerylamino)-1-methylthio-5-phenyl-2-pentanone] | > 100 | 0.25 | 0.39 | 13 |  |
| CSCC(=O)[C@H](CCc1ccccc1)NC(=O)[C@H](CC(C)C)NC(=O)COc1ccccc1 [203 (No. 536), (s)-3-((s)-4-methyl-2-phenoxyacetylaminovalerylamino)-1-methylthio-5-phenyl-2-pentanone] |  | 0.34 | 0.38 | 9.1 | 4.4 |
